Assay results published in ChEMBL document CHEMBL4808256, “Benzothiophene derivatives as selective estrogen receptor covalent antagonists: Design, synthesis and anti-ERα activities” (Bioorg Med Chem, 2021).
One block for each compound: values may come before it. Calls of active or inactive are those of the source. No cut-off for these calls is given here.

Tests used:
[1] = tested on: MCF7; experiment: Antiproliferative activity against ER-positive human MCF7 cells assessed as inhibition of cell growth incubated for 48 hrs by CCK8 assay; format: functional, cell-based; conditions: MCF7, 48 h
[2] = tested on: Ishikawa; experiment: Antiproliferative activity against ER-positive human Ishikawa cells assessed as inhibition of cell growth incubated for 48 hrs by CCK8 assay; format: functional, cell-based
[3] = target: T1, Estrogen receptor (Homo sapiens) (UniProt P03372); experiment: Covalent antagonist activity at ERalpha in human MCF7 cells assessed as reduction in E2-stimulated TFF1 gene expression at 1.25 to 10 uM incubated for 24 hrs by RT-PCR analysis; format: cell-based; conditions: filed as antagonist, dose 1.25-10 µM
T1 sequence (whole entry): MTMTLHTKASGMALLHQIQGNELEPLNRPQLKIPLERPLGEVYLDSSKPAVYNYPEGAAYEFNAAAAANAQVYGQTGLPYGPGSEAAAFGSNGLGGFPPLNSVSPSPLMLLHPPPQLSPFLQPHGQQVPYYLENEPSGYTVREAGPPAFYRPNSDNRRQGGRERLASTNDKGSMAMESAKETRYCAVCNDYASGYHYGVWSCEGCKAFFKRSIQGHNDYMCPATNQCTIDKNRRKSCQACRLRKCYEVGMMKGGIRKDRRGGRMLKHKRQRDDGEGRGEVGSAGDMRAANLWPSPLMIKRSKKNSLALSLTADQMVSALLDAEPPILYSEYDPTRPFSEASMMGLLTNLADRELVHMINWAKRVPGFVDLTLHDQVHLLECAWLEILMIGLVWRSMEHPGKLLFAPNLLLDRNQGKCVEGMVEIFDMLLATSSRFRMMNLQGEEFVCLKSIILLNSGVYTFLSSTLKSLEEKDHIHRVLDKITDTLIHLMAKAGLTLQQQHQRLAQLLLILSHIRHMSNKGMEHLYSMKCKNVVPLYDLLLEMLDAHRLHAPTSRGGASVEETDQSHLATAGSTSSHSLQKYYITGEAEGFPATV

[4] = tested on: MCF7; experiment: Induction of cell cycle arrest in human MCF7 cells assessed as accumulation at S phase at 10 uM by propidium iodide staining based flow cytometric analysis (reference value: 63.32%); format: functional
[5] = target: T1, Estrogen receptor (Homo sapiens); experiment: Covalent antagonist activity at ERalpha in human MCF7 cells assessed as reduction in E2-stimulated GREB1 gene expression at 1.25 to 10 uM incubated for 24 hrs by RT-PCR analysis; format: cell-based; conditions: filed as antagonist, dose 1.25-10 µM
[6] = tested on: MCF7; experiment: Induction of cell cycle arrest in human MCF7 cells assessed as accumulation at S phase at 5 uM by propidium iodide staining based flow cytometric analysis (reference value: 63.32%); format: functional
[7] = tested on: Ishikawa; experiment: Induction of cell proliferation in human ishikawa cells at 156 to 5000 nM measured after 2 days; format: cell-based; conditions: 48 h, 5 µM, dose 156-5000 nM, time 2 day
[8] = target: T1, Estrogen receptor (Homo sapiens); experiment: Antagonist activity at ERalpha receptor in human ishikawa cells assessed as suppression of E2-stimulated PGR expression at 1.25 to 10 uM by RT-PCR analysis; format: cell-based; conditions: filed as antagonist, dose 1.25-10 µM
[9] = tested on: MCF7; experiment: Induction of cell cycle arrest in human MCF7 cells assessed as accumulation at S phase at 1 uM by propidium iodide staining based flow cytometric analysis (reference value: 63.32%); format: functional
[10] = tested on: MCF7; experiment: Induction of cell cycle arrest in human MCF7 cells assessed as accumulation at G0/G1 phase at 5 uM by propidium iodide staining based flow cytometric analysis (reference value: 24.44%); format: functional
[11] = tested on: MCF7; experiment: Induction of cell cycle arrest in human MCF7 cells assessed as accumulation at G0/G1 phase at 1 uM by propidium iodide staining based flow cytometric analysis (reference value: 24.44%); format: functional
[12] = tested on: MCF7; experiment: Induction of cell cycle arrest in human MCF7 cells assessed as accumulation at G0/G1 phase at 10 uM by propidium iodide staining based flow cytometric analysis (reference value: 24.44%); format: functional
[13] = tested on: MCF7; experiment: Induction of apoptosis in human MCF7 cells assessed as viable cells at 1 uM by AnnexinV-FITC/propidium iodide staining based flow cytometry (reference value: 96.1%); format: functional; conditions: read-out: Activity
[14] = tested on: MCF7; experiment: Induction of apoptosis in human MCF7 cells assessed as viable cells at 5 uM by AnnexinV-FITC/propidium iodide staining based flow cytometry (reference value: 96.1%); format: functional; conditions: read-out: Activity
[15] = tested on: MCF7; experiment: Induction of apoptosis in human MCF7 cells assessed as viable cells at 10 uM by AnnexinV-FITC/propidium iodide staining based flow cytometry (reference value: 96.1%); format: functional; conditions: read-out: Activity
[16] = tested on: MDA-MB-231; experiment: Antiproliferative activity against ER-negative human MDA-MB-231 cells assessed as inhibition of cell growth incubated for 48 hrs by CCK8 assay; format: functional, cell-based; conditions: MDA-MB-231, 48 h
[17] = tested on: MCF7; experiment: Potency index, ratio of raloxifene IC50 to test compound IC50 for antiproliferative activity against ER-positive human MCF7 cells; format: functional
[18] = tested on: MCF7; experiment: Downregulation of ERalpha protein expression in human MCF7 cells at 5 uM incubated for 24 hrs by DAPI staining based immunofluorescence microscopy; format: functional, cell-based
[19] = tested on: MCF7; experiment: Induction of cell cycle arrest in human MCF7 cells assessed as accumulation at G2/M phase at 1 uM by propidium iodide staining based flow cytometric analysis (reference value: 12.24%); format: functional
[20] = tested on: MCF7; experiment: Induction of cell cycle arrest in human MCF7 cells assessed as accumulation at G2/M phase at 5 uM by propidium iodide staining based flow cytometric analysis (reference value: 12.24%); format: functional
[21] = tested on: MCF7; experiment: Induction of cell cycle arrest in human MCF7 cells assessed as accumulation at G2/M phase at 10 uM by propidium iodide staining based flow cytometric analysis (reference value: 12.24%); format: functional
[22] = tested on: MCF7; experiment: Induction of apoptosis in human MCF7 cells assessed as early apoptotic cells at 1 uM by AnnexinV-FITC/propidium iodide staining based flow cytometry (reference value: 0.8%); format: functional
[23] = tested on: MCF7; experiment: Induction of apoptosis in human MCF7 cells assessed as early apoptotic cells at 5 uM by AnnexinV-FITC/propidium iodide staining based flow cytometry (reference value: 0.8%); format: functional
[24] = tested on: MCF7; experiment: Induction of apoptosis in human MCF7 cells assessed as early apoptotic cells at 10 uM by AnnexinV-FITC/propidium iodide staining based flow cytometry (reference value: 0.8%); format: functional
[25] = tested on: MCF7; experiment: Induction of apoptosis in human MCF7 cells assessed as late apoptotic cells at 1 uM by AnnexinV-FITC/propidium iodide staining based flow cytometry (reference value: 0.7%); format: functional
[26] = tested on: MCF7; experiment: Induction of apoptosis in human MCF7 cells assessed as late apoptotic cells at 5 uM by AnnexinV-FITC/propidium iodide staining based flow cytometry (reference value: 0.7%); format: functional
[27] = tested on: MCF7; experiment: Induction of apoptosis in human MCF7 cells assessed as late apoptotic cells at 10 uM by AnnexinV-FITC/propidium iodide staining based flow cytometry (reference value: 0.7%); format: functional
[28] = tested on: MCF7; experiment: Induction of apoptosis in human MCF7 cells assessed as necrotic cells at 1 uM by AnnexinV-FITC/propidium iodide staining based flow cytometry (reference value: 0.4%); format: functional
[29] = tested on: MCF7; experiment: Induction of apoptosis in human MCF7 cells assessed as necrotic cells at 5 uM by AnnexinV-FITC/propidium iodide staining based flow cytometry (reference value: 0.4%); format: functional
[30] = tested on: MCF7; experiment: Induction of apoptosis in human MCF7 cells assessed as necrotic cells at 10 uM by AnnexinV-FITC/propidium iodide staining based flow cytometry (reference value: 0.4%); format: functional

SMILES: C=C(C)C(=O)N1CC(Oc2ccc(C(=O)c3c(-c4ccc(O)cc4)sc4cc(O)ccc34)cc2)C1
- IC50 [1]: 23.1 µM
- IC50 [2]: 22.6 µM

SMILES: C=C(C)C(=O)NCCOc1ccc(C(=O)c2c(-c3ccc(O)cc3)sc3cc(O)ccc23)cc1
- IC50 [1]: 28.7 µM
- IC50 [2]: 29.2 µM

SMILES: O=C(c1ccc(OC2CN(C/C=C/C(=O)N3CCOCC3)C2)cc1)c1c(-c2ccc(O)cc2)sc2cc(O)ccc12
- IC50 [1]: 5.72 µM
- IC50 [2]: 18.4 µM
- Ratio IC50 [17]: 4

SMILES: CC/C(=C(\c1ccccc1)c1ccc(OCCN(C)C)cc1)c1ccccc1 [TAMOXIFEN]
- IC50 [2]: 14.6 µM

SMILES: C/C=C/C(=O)NCCOc1ccc(C(=O)c2c(-c3ccc(O)cc3)sc3cc(O)ccc23)cc1
- IC50 [1]: > 50 µM
- IC50 [2]: > 100 µM

SMILES: CNC(=O)/C=C/CN1CC(Oc2ccc(C(=O)c3c(-c4ccc(O)cc4)sc4cc(O)ccc34)cc2)C1
- IC50 [1]: 11.3 µM
- IC50 [2]: 45 µM
- IC50 [16]: > 50 µM

SMILES: COCCNC(=O)/C=C/CNCCOc1ccc(C(=O)c2c(-c3ccc(O)cc3)sc3cc(O)ccc23)cc1
- IC50 [1]: 42.8 µM
- IC50 [2]: 55.3 µM

SMILES: CN(C)C(=O)/C=C/CNCCOc1ccc(C(=O)c2c(-c3ccc(O)cc3)sc3cc(O)ccc23)cc1
- IC50 [1]: > 50 µM
- IC50 [2]: 48.4 µM

SMILES: CC/C(=C(\c1ccc(O)cc1)c1ccc(OCCN(C)C)cc1)c1ccccc1 [AFIMOXIFENE]
- Activity [7]: Toxic

SMILES: O=C(c1ccc(OC2CN(CCCC(=O)N3CCCCC3)C2)cc1)c1c(-c2ccc(O)cc2)sc2cc(O)ccc12
- IC50 [1]: > 50 µM
- IC50 [2]: > 50 µM
- IC50 [16]: > 50 µM

SMILES: O=C(c1ccc(OCCN2CCCCC2)cc1)c1c(-c2ccc(O)cc2)sc2cc(O)ccc12 [RALOXIFENE]
- IC50 [1]: 21.9 µM
- IC50 [2]: 28.4 µM

More lines, main results first:

- IC50 [1]: 1.31 µM
- inhibition [3]: Active
- inhibition [5]: Active
- inhibition [8]: Active
- IC50 [16]: > 50 µM
SMILES: O=C(c1ccc(OC2CN(C/C=C/C(=O)N3CCCCC3)C2)cc1)c1c(-c2ccc(O)cc2)sc2cc(O)ccc12
- IC50 [2]: 10.3 µM
- Activity [4]: 49.43%
- Activity [6]: 54.23%
- Activity [7]: Non-Toxic
- Activity [9]: 57.31%
- Activity [10]: 32.84%
- Activity [11]: 28.53%
- Activity [12]: 38.85%
- viability at 1 µM [13]: 87.1%
- viability at 5 µM [14]: 77.4%
- viability at 10 µM [15]: 66.3%
- Ratio IC50 [17]: 20
- inhibition [18]: Active
- Activity [19]: 14.1%
- Activity [20]: 12.93%
- Activity [21]: 11.72%
- Activity [22]: 8.3%
- Activity [23]: 11.5%
- Activity [24]: 16.6%
- Activity [25]: 3.4%
- Activity [26]: 9.7%
- Activity [27]: 15.8%
- Activity [28]: 1.2%
- Activity [29]: 1.4%
- Activity [30]: 1.3%

- IC50 [1]: 11.5 µM
SMILES: O=C(c1ccc(OCCNC/C=C/C(=O)N2CCCCC2)cc1)c1c(-c2ccc(O)cc2)sc2cc(O)ccc12
- IC50 [2]: 6.34 µM

- IC50 [1]: > 50 µM
SMILES: C=C(C)C(=O)N1CCN(c2ccc(C(=O)c3c(-c4ccc(O)cc4)sc4cc(O)ccc34)cc2)CC1
- IC50 [2]: > 100 µM

- IC50 [1]: 24.2 µM
SMILES: O=C(c1ccc(OCCNC/C=C/C(=O)N2CCC2)cc1)c1c(-c2ccc(O)cc2)sc2cc(O)ccc12
- IC50 [2]: 29.6 µM

- IC50 [1]: 13.1 µM
- IC50 [16]: > 50 µM
SMILES: CNC(=O)/C=C/CNCCOc1ccc(C(=O)c2c(-c3ccc(O)cc3)sc3cc(O)ccc23)cc1
- IC50 [2]: 50.9 µM

- IC50 [1]: 31.3 µM
SMILES: C=CC(=O)N1CC(Oc2ccc(C(=O)c3c(-c4ccc(O)cc4)sc4cc(O)ccc34)cc2)C1
- IC50 [2]: 16.6 µM

- IC50 [1]: 23.7 µM
SMILES: C/C=C/C(=O)N1CC(Oc2ccc(C(=O)c3c(-c4ccc(O)cc4)sc4cc(O)ccc34)cc2)C1
- IC50 [2]: 22.2 µM

- IC50 [1]: 37.1 µM
SMILES: C=CC(=O)NCCOc1ccc(C(=O)c2c(-c3ccc(O)cc3)sc3cc(O)ccc23)cc1
- IC50 [2]: > 100 µM

- IC50 [1]: > 50 µM
SMILES: C=CC(=O)N1CCN(c2ccc(C(=O)c3c(-c4ccc(O)cc4)sc4cc(O)ccc34)cc2)CC1
- IC50 [2]: > 100 µM

- IC50 [1]: 29.3 µM
SMILES: CN(C)C(=O)/C=C/CN1CC(Oc2ccc(C(=O)c3c(-c4ccc(O)cc4)sc4cc(O)ccc34)cc2)C1
- IC50 [2]: 29.6 µM

- IC50 [1]: 23.3 µM
SMILES: O=C(c1ccc(OC2CN(C/C=C/C(=O)N3CCC3)C2)cc1)c1c(-c2ccc(O)cc2)sc2cc(O)ccc12
- IC50 [2]: 25.8 µM

- IC50 [1]: 8.41 µM
- IC50 [16]: > 50 µM
SMILES: O=C(c1ccc(OCCNC/C=C/C(=O)N2CCOCC2)cc1)c1c(-c2ccc(O)cc2)sc2cc(O)ccc12
- IC50 [2]: 24.9 µM

- IC50 [1]: 24.2 µM
SMILES: O=C(c1ccc(OCCNC/C=C/C(=O)N2CCCC2)cc1)c1c(-c2ccc(O)cc2)sc2cc(O)ccc12
- IC50 [2]: 46.1 µM
